Results taken from ChEMBL document CHEMBL3112408, “1,2,3-triazole-, arylamino- and thio-substituted 1,4-naphthoquinones: potent antitumor activity, electrochemical aspects, and bioisosteric replacement of C-ring-modified lapachones” (Bioorg Med Chem, 2014).

Columns and labels:
MCF7 = assay: Cytotoxicity against human MCF7 cells assessed as cell viability after 72 hrs by MTT assay; format: functional, cell-based; settings: MCF7, 72 h
MX1 = assay: Cytotoxicity against human MX1 cells assessed as cell viability after 72 hrs by MTT assay; format: functional, cell-based; settings: MX1, 72 h
PC-3 = assay: Cytotoxicity against human PC3 cells assessed as cell viability after 72 hrs by MTT assay; format: functional, cell-based; settings: PC-3, 72 h
SF-295 = assay: Cytotoxicity against human SF295 cells assessed as cell viability after 72 hrs by MTT assay; format: functional, cell-based; settings: SF-295, 72 h
HCT-116 = assay: Cytotoxicity against human HCT116 cells assessed as cell viability after 72 hrs by MTT assay; format: functional, cell-based; settings: HCT-116, 72 h
[1] = Cytotoxicity against human HCT8 cells assessed as cell viability after 72 hrs by MTT assay; format: functional, cell-based; settings: HCT-8, 72 h
L929 = assay: Cytotoxicity against mouse L929 cells assessed as cell viability after 72 hrs by MTT assay; format: ADME, cell-based; settings: L929, 72 h
PBMC = assay: Cytotoxicity against human PBMC assessed as cell viability after 72 hrs by MTT assay; format: cell-based
OVCAR-8 = assay: Cytotoxicity against human OVCAR8 cells assessed as cell viability after 72 hrs by MTT assay; format: functional, cell-based; settings: OVCAR-8, 72 h
V79 = assay: Cytotoxicity against chinese hamster V79 cells assessed as cell viability after 72 hrs by MTT assay; format: cell-based; settings: Cricetulus griseus, V79, 72 h
MDA-MB-435 = assay: Cytotoxicity against human MDA-MB-435 cells assessed as cell viability after 72 hrs by MTT assay; format: functional, cell-based; settings: MDA-MB-435, 72 h
[2] = Cytotoxicity against human Hs578T cells assessed as cell viability after 72 hrs by MTT assay; format: functional, cell-based; settings: Hs-578T
DU-145 = assay: Cytotoxicity against human DU145 cells assessed as cell viability after 72 hrs by MTT assay; format: functional, cell-based; settings: DU-145, 72 h
HL-60 = assay: Cytotoxicity against human HL60 cells assessed as cell viability after 72 hrs by MTT assay; format: functional, cell-based; settings: HL-60, 72 h

SMILES	IC50 (MCF7) [µM]	IC50 (MX1) [µM]	IC50 (PC-3) [µM]	IC50 (SF-295) [µM]	IC50 (HCT-116) [µM]	IC50 [1] [µM]	IC50 (L929) [µM]	IC50 (PBMC) [µM]	IC50 (OVCAR-8) [µM]	IC50 (V79) [µM]	IC50 (MDA-MB-435) [µM]	IC50 [2] [µM]	IC50 (DU-145) [µM]	IC50 (HL-60) [µM]
O=C1C(Br)=C(NCc2cn(CN3C(=O)c4ccccc4C3=O)nn2)C(=O)c2ccccc21	> 10	> 10	> 10	> 10	> 10	> 10	> 10	> 10	> 10	> 10	> 10	> 10	> 10	> 10
CC1(C)OC2=C(C(=O)c3ccccc3C2=O)C1Sc1ccccc1 (stereo unspecified)	7.43	6.45	6.09	9.15	3.29	2.25	13.8	> 14.8	6.09	> 14.8		3.26	6.98	0.47
O=C1C=C(NCc2cn(-c3cccc([N+](=O)[O-])c3)nn2)C(=O)c2ccccc21	> 13	> 13	> 13	> 13	> 13	> 13	> 13	> 13	> 13	> 13	> 13	> 13	> 13	> 13
CC1(C)CC(Sc2ccccc2)C2=C(O1)C(=O)c1ccccc1C2=O (stereo unspecified)	13.3	11.8	> 14	> 14	> 14	> 14	> 14	> 14	> 14	> 14		4.61	> 14	2.91
CCC(C)(O)c1cn(C2CC(C)(C)OC3=C2C(=O)c2ccccc2C3=O)nn1 (stereo unspecified)	3.12	3.41	3.07	4.22	3.2	2.73	3.85	4.77	4.77	4.06	2.1	3.04	3.36	2.12
CC1(C)CC(Nc2ccc(Br)cc2)C2=C(O1)C(=O)c1ccccc1C2=O (stereo unspecified)	4.97	6.33	5.41	6.38	5.84	5.31	2.38	2.89	5.53	2.55	5.24	6.4	6.72	4.73
O=C1C(Cl)=C(NCc2cn(CCCCN3C(=O)c4ccccc4C3=O)nn2)C(=O)c2ccccc21	> 10	> 10	> 10	> 10	> 10	> 10	> 10	> 10	> 10	> 10	> 10	> 10	> 10	> 10
O=C1C=C(n2cc(CNC3=C(Cl)C(=O)c4ccccc4C3=O)nn2)C(=O)c2ccccc21	7.76	4.02	5.42	5.55	6.65	7.08	6.83	10.2	6.02	7.1	3.33	4.68	4.92	3.42
CC1(C)OC2=C(C(=O)c3ccccc3C2=O)C1n1cc(C2CCCCC2)nn1 (stereo unspecified)	5.78	4.21	4.29	3.18	5.51	6.7	6.62	7.36	5.38	6.12	2.76	4.95	5.48	2.7
O=C1C=C(n2cc(CNC3=C(Br)C(=O)c4ccccc4C3=O)nn2)C(=O)c2ccccc21	> 10	> 10	> 10	> 10	> 10	> 10	> 10	> 10	> 10	> 10	> 10	> 10	> 10	> 10
CC1(C)CC(Nc2cccc(F)c2)C2=C(O1)C(=O)c1ccccc1C2=O (stereo unspecified)	6.92	7.11	7.77				3.24	4.44		2.68		7.68	8.76	
O=C1C(Br)=C(NCc2cn(CCN3C(=O)c4ccccc4C3=O)nn2)C(=O)c2ccccc21	> 9	> 9	> 9	> 9	> 9	> 9	> 9	> 9	> 9	> 9	> 9	> 9	> 9	> 9
CC1(C)CC(Nc2cccc([N+](=O)[O-])c2)C2=C(O1)C(=O)c1ccccc1C2=O (stereo unspecified)				1.51	8.48	6.42	4.62	4.84		3.86	1.45			1.51
CC1(C)CC(Nc2ccc([N+](=O)[O-])cc2)C2=C(O1)C(=O)c1ccccc1C2=O (stereo unspecified)	7.16	5.52	5.79	5.95	5.66	4.97	1.37	2.01	6.66	1.61	5.42	5.95	6.13	4.26
CC1(C)CC(n2cc(C3CCCCC3)nn2)C2=C(O1)C(=O)c1ccccc1C2=O (stereo unspecified)	> 12	> 12	11.2	11.3	10.5	12.3	12.5	> 12	15.1	12	10.7	10.9	11.7	10.4
O=C1C(Cl)=C(NCc2cn(CCN3C(=O)c4ccccc4C3=O)nn2)C(=O)c2ccccc21	> 10	> 10	> 10	> 10	> 10	> 10	> 10	> 10	> 10	> 10	> 10	> 10	> 10	> 10
COc1ccc(NC2CC(C)(C)OC3=C2C(=O)c2ccccc2C3=O)cc1 (stereo unspecified)	1.02	0.52	0.55	0.74	0.33	0.47	0.74	1.76	0.44	0.96	0.58	0.69	0.88	0.19
COc1cccc2c1C(=O)c1c(O)c3c(c(O)c1C2=O)C[C@@](O)(C(=O)CO)C[C@@H]3O[C@H]1C[C@H](N)[C@H](O)[C@H](C)O1 [DOXORUBICIN]		0.5				0.13			0.35	0.24		0.37	0.53	
O=C1C=C(NCc2cn(CCCCN3C(=O)c4ccccc4C3=O)nn2)C(=O)c2ccccc21	> 10	> 10	> 10	> 10	> 10	> 10	> 10	> 10	> 10	> 10	> 10	> 10	> 10	> 10
O=C1C=C(NCc2cn(CCN3C(=O)c4ccccc4C3=O)nn2)C(=O)c2ccccc21	> 11	> 11	> 11	> 11	> 11	> 11	> 11	> 11	> 11	> 11	> 11	> 11	> 11	> 11
CC1(C)CC(Nc2ccc(Cl)cc2)C2=C(O1)C(=O)c1ccccc1C2=O (stereo unspecified)	0.98	0.76	1	0.71	0.54	0.65	1.85	0.52	1.47	1.5	1	0.6	1.17	0.98
O=C1C=C(NCc2cn(C3=CC(=O)c4ccccc4C3=O)nn2)C(=O)c2ccccc21	3.67	3.7	5.02	3.82	> 12	2.7	5.21	6.77	2.86	6.21	3.09	5.68	5.34	0.8
